Patent US9211249B2, “Methods and compositions for transdermal delivery of caffeine in the form of solutions or suspensions” (priority 2013, dated 2015)

Assay: Solubility of caffeine in caffeine-containing compositions containing various helper esters
Conditions: compared with caffeine in pure water; Tables 1-9

solubility of caffeine in water with helper ester (statement in words): increased
Structure (SMILES): CC(C)OC(=O)[C@@H](N)Cc1c[nH]c2ccccc12 [tryptophan isopropyl ester]
